From ChEMBL document CHEMBL4507268 (2021)

What was measured:
Conditions in all cases: Compound concentration 1000.0 nM
[1] = biological target: Cyclin-dependent kinase 4 (Homo sapiens) (UniProt P11802)
[2] = system: Receptor-type tyrosine-protein kinase FLT3 (Homo sapiens), P36888 [D835Y]
[3] = biological target: T1, G protein-coupled receptor kinase 3 (Homo sapiens) (UniProt P35626)
T1 sequence (whole entry): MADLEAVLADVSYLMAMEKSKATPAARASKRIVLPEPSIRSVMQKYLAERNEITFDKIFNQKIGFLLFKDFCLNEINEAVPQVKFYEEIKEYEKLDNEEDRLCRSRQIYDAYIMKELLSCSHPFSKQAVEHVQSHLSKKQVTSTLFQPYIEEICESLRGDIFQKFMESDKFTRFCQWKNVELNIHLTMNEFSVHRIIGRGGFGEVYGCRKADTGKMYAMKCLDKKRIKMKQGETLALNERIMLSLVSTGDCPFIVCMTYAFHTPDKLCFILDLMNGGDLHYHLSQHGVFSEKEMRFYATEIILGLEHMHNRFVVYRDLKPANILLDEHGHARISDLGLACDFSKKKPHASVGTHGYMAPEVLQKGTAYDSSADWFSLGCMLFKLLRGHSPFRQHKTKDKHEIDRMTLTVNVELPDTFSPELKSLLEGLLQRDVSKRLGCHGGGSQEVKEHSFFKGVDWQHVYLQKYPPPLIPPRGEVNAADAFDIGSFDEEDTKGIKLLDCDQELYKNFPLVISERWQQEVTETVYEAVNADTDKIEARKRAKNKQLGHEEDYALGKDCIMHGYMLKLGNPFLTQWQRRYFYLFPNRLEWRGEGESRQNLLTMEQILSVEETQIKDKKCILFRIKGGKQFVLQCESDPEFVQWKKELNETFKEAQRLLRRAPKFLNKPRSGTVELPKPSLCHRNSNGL

[4] = biological target: T2, Inhibitor of nuclear factor kappa-B kinase subunit epsilon (Homo sapiens) (UniProt Q14164)
T2 sequence (whole entry): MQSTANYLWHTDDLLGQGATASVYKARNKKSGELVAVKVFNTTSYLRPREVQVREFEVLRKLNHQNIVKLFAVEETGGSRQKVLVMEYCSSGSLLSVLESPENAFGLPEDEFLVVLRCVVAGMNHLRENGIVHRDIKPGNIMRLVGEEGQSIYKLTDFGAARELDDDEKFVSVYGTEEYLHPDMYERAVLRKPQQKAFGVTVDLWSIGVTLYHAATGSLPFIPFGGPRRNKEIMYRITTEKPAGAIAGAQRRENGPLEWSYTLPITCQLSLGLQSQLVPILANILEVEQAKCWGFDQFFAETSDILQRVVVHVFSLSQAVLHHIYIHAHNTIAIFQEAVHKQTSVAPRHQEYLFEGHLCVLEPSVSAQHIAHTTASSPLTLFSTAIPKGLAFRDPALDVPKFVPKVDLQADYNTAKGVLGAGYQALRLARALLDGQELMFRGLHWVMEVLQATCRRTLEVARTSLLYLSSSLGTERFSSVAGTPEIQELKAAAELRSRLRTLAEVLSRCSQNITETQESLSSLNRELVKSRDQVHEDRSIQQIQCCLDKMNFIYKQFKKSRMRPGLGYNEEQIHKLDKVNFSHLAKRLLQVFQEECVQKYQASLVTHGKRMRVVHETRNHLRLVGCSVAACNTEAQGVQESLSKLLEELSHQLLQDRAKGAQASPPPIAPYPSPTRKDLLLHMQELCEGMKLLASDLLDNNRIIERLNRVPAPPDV

[5] = biological target: T3, MAP/microtubule affinity-regulating kinase 4 (Homo sapiens) (UniProt Q96L34)
T3 sequence (whole entry): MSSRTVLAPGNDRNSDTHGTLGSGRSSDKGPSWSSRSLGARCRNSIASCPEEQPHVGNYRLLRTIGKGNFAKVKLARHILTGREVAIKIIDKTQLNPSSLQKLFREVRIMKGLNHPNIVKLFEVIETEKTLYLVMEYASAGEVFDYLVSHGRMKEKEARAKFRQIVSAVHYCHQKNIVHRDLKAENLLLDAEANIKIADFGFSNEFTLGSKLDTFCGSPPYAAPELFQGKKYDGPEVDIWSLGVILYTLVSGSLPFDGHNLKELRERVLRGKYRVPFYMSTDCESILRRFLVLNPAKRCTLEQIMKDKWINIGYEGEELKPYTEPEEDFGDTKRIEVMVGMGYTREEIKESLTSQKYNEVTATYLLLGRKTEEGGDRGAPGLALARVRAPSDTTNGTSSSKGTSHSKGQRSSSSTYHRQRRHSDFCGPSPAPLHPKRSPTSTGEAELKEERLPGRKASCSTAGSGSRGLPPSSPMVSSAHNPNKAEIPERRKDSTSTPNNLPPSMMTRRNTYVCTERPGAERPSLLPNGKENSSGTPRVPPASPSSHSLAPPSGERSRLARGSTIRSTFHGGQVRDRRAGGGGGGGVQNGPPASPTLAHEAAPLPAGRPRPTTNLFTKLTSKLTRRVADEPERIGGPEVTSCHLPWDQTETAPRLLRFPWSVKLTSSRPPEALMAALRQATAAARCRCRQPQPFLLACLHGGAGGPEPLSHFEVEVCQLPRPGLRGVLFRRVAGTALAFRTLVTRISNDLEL

[6] = biological target: Serine/threonine-protein kinase NIM1 (Homo sapiens) (UniProt Q8IY84)
[7] = system: Phosphatidylinositol 4,5-bisphosphate 3-kinase catalytic subunit alpha isoform (Homo sapiens), P42336 [E545K]
[8] = biological target: cAMP-dependent protein kinase catalytic subunit beta (Homo sapiens) (UniProt P22694)
[9] = biological target: T4, Serine/threonine-protein kinase Sgk3 (Homo sapiens) (UniProt Q96BR1)
T4 sequence (whole entry): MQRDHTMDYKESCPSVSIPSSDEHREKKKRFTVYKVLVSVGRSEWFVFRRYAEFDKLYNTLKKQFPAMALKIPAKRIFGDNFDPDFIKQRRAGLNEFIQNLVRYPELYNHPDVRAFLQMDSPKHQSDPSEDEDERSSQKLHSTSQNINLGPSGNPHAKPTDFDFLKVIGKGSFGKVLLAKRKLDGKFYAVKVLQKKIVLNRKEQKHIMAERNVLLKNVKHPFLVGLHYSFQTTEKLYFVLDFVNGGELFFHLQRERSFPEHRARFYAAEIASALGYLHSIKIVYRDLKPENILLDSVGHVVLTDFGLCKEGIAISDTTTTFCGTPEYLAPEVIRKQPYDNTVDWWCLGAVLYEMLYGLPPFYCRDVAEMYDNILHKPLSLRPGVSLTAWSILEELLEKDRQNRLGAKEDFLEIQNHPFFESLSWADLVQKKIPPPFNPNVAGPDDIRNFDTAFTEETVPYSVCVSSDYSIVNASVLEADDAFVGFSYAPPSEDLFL

Measured: residual activity

Sequence of Serine/threonine-protein kinase NIM1 (Homo sapiens) (Q8IY84 whole entry, canonical isoform): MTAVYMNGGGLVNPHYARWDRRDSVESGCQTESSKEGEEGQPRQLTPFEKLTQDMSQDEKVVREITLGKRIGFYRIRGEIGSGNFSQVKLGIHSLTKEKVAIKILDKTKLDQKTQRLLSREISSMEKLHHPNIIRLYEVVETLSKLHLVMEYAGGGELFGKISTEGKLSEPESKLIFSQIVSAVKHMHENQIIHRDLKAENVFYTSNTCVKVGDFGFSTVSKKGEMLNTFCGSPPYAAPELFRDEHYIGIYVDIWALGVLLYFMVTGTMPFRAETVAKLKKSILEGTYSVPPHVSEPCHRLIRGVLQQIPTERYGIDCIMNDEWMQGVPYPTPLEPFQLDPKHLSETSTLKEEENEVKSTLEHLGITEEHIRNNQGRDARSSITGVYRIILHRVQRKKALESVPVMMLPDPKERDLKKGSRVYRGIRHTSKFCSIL
Sequence of Phosphatidylinositol 4,5-bisphosphate 3-kinase catalytic subunit alpha isoform (Homo sapiens), P42336 [E545K] (P42336 whole entry E545K, canonical isoform): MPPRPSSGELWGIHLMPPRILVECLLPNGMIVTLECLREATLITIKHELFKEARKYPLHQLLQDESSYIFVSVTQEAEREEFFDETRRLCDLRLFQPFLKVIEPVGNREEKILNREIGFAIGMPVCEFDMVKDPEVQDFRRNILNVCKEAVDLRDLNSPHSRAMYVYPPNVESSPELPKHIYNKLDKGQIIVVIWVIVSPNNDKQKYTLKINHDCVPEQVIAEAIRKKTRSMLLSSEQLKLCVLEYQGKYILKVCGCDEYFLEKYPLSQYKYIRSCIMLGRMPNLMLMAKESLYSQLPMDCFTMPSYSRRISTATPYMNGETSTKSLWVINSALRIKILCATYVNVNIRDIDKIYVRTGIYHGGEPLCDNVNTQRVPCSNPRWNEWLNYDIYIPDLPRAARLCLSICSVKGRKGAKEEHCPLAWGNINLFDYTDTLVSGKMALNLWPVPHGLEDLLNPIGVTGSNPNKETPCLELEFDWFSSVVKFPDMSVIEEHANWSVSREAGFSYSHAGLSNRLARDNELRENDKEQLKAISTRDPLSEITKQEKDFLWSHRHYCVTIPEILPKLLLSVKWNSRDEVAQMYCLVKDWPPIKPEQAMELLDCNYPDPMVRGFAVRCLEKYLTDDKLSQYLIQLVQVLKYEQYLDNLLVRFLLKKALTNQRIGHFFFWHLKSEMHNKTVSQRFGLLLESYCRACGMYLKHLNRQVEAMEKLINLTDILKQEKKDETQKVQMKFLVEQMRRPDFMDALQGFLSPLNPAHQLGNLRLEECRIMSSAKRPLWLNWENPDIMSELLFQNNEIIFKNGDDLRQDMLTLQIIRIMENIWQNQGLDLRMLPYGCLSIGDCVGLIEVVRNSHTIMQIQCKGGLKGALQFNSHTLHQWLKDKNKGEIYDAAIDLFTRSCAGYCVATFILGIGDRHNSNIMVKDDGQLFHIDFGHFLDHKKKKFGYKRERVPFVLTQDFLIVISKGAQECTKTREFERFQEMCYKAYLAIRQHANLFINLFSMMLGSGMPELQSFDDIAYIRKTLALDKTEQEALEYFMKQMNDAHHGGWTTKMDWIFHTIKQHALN
Sequence of Cyclin-dependent kinase 4 (Homo sapiens) (P11802 whole entry): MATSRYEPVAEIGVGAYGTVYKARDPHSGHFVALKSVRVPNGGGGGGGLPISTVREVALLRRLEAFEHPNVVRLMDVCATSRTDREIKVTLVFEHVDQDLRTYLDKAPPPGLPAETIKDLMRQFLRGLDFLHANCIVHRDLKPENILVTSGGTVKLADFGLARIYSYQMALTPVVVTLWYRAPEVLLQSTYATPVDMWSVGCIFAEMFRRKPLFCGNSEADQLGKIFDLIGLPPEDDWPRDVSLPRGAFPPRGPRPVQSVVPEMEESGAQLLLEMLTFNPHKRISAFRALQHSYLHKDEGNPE

CN1CCN(c2cnc3c(C4CCN(C(=O)c5ccc(OC(F)(F)F)cc5N)CC4)ncnc3c2)CC1 [BAY-885]
inactive: [1] 100% | [2] 100% | [3] 89% | [4] 98% | [5] 100% | [6] 100% | [7] 100% | [8] 91% | [9] 100%

Cc1nc(C2CCN(C(=O)c3ccc(OC(F)(F)F)cc3N)CC2)c2ncc(N3CCN(C)CC3)cc2n1 [BAY-693]
inactive: [1] 100% | [2] 97% | [3] 93% | [4] 97% | [5] 100% | [6] 89% | [7] 85% | [8] 100% | [9] 93%
